Counter-ions that a name gives are not always drawn.
Experiments:
Format in all cases: biochemical
[1] = target: T1, recombinant human Lp-PLA2 (Homo sapiens, UniProt Q13093); experiment: (1b) hrThioPAF assay, recombinant human Lp-PLA2; conditions: Examples 266-412 were tested here, one experiment or average of multiple experiments, read-out: rhLp-PLA2 (pIC50) (converted)
T1 sequence (Q13093 22-441): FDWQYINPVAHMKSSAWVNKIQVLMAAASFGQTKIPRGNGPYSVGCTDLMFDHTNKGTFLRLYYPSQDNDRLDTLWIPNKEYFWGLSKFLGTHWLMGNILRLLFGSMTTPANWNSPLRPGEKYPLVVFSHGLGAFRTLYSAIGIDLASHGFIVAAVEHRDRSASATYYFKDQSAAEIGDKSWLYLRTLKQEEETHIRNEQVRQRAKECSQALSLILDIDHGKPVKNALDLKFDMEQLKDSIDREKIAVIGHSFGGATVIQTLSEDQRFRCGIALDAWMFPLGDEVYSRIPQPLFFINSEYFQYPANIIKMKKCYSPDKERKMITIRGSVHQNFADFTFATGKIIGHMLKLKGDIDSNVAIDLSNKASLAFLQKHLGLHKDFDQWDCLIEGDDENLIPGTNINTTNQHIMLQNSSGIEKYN
Description: 1-O-Hexadecyl-2-deoxy-2-thio-S-acetyl-sn-glyceryl-3-phosphorylcholine (2-thio-PAF) is a substrate for PAF-hydrolases (PAF-AH) commercially available from Cayman Chemical. Upon cleavage with PAF-AH, the free thiol is released at the sn-2 position and can then react with 7-diethylamino-3-(4′-maleimidylphenyl)-4-methylcoumarin (CPM) a thiol-reactive coumarin. This reaction (Michael addition) results in an increase in fluorescence. Inhibitors of Lp-PLA2 therefore prevent this cleavage and no fluorescent increase is observed.
The Thio-PAF assay was run as an unquenched 20 μL assay. The source plate containing the compounds to be tested was prepared by making 1:3 (by volume) serial dilution of the compounds within DMSO on 384-well microplate. Then, 5 μL of the compounds on compound source plate were transferred into 384 well Greiner 784076 (black) plates using STAR+(Hamilton) liquid dispenser. 10 μL of recombinant human Lp-PLA2 enzyme (20 pM rhLp-PLA2 in assay buffer of 50 mM HEPES, pH 7.4, 150 mM NaCl, 1 mM CHAPS) was added to each well of the plate. 5 μL of substrate comprising 40 μM 2-thio-PAF [from ethanol stock], 40 μM CPM [from a DMSO stock] and 400 μM NEM (N-ethylmaleimide) [made fresh daily in DMSO] in assay buffer (50 mM HEPES, pH 7.4, 150 mM NaCl, 1 mM CHAPS) was added to 384 well Greiner 784076 black plates. Plates were vortexed for 10 sec. The plate was covered to protect it from light and incubated for 20 min at 25° C. The plates were read for fluorescence intensity at ex: 380 nm/em: 485 nm using Envision plate reader (Perkin Elmer). Raw data were transferred to Excel software and pIC50 data, curve and QC analysis was conducted by using XL fit module in Excel.

[2] = target: T1, recombinant human Lp-PLA2; experiment: (1a) PED6 assay, recombinant human Lp-PLA2 (rhLp-PLA2); conditions: Examples 1-167 and 413-430 were tested here, one experiment or average of multiple experiments, read-out: rhLp-PLA2 (pIC50) (converted)
How it was run: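 PED6 (2 μM final after 1:1 addition of 4 μM stock) cleavage by rhLp-PLA2 (4 nM working solution) in 50 mM HEPES pH 7.4, 150 mM NaCl, 1 mM CHAPS; compounds preincubated with enzyme 30 minutes, reaction 20 min at room temperature. Fluorescence at ex 480/em 540; pIC50 from curve fit.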

Lp-PLA2 in human plasma = target: T2, Lp-PLA2 in human plasma (Homo sapiens, UniProt Q13093); experiment: (3a) Lp-PLA2 human plasma Thio-PAF assay; conditions: (3a) Thio-PAF assay, pooled human plasma; Examples 1-265 and 413-430 were tested here; read-out: pIC50 in the Lp-PLA2 human plasma assay (converted)
T2 construct: from tissue; host or cells: pooled human plasma
T2 sequence (Q13093 22-441): T1 sequence (Q13093 22-441)
How it was run: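 Pooled human plasma preincubated 30 min with serially diluted compound, then given 2-thio-PAF substrate with CPM and NEM in 50 mM HEPES pH 7.4, 150 mM NaCl, 1 mM CHAPS. Reaction quenched with TFA after 2 min; CPM thiol-adduct fluorescence read at ex 380/em 485 after 40 min; pIC50 reported.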

Row | IC50 [1] [µM] | IC50 [2] [µM] | IC50 (Lp-PLA2 in human plasma) [µM] | Structure (SMILES)
1 | ≤ 10 | – | – | O=c1nc(OCc2cccc(F)c2F)cc2n1CC1CS(=O)(=O)CCN21 (stereo not shown) [Example E363, 7-((2,3-Difluorobenzyl)oxy)-3,4,11,11a-tetrahydropyrimido[6′,1′:2,3]imidazo[5,1-c][1,4] thiazin-9(1H)-one 2,2-dioxide]
2 | ≤ 10 | – | – | N#Cc1cc(COc2cc3n(c(=O)n2)C[C@H]2CC(O)CN32)ccc1F (stereo in doubt) [Example E381, 2-Fluoro-5-((((7R,8aR)-7-hydroxy-1-oxo-1,6,7,8,8a,9-hexahydropyrrolo[1′,2′:3,4]imidazo[1,2-c]pyrimidin-3-yl)oxy)methyl)benzonitrile]
3 | ≤ 10 | – | – | O=c1nc(OCc2cccc(F)c2F)cc2n1CC1C[S+]([O-])CCN21 (stereo not shown) [Example E362, 7-((2,3-Difluorobenzyl)oxy)-3,4,11,11a-tetrahydropyrimido[6′,1′:2,3]imidazo[5,1-c][1,4] thiazin-9(1H)-one 2-oxide]
4 | ≤ 10 | – | – | N#Cc1cc(CCOc2cc3n(c(=O)n2)CC2(CCOCC2)N3)ccc1F [Example 404, 2-Fluoro-5-(2-((5-oxo-2′,3,3′,5,5′,6′-hexahydro-1H-spiro[imidazo[1,2-c]pyrimidine-2,4′-pyran]-7-yl)oxy)ethyl)benzonitrile]
5 | ≤ 0.1 | – | – | N#Cc1cc(COc2cc3n(c(=O)n2)CC2CNCCN32)ccc1OC1CCCC1 (stereo not shown) [Example E317, 2-(Cyclopentyloxy)-5-(((9-oxo-2,3,4,9,11,11a-hexahydro-1H-pyrazino[1,2′:3,4]imidazo[1,2-c]pyrimidin-7-yl)oxy)methyl)benzonitrile]
6 | ≤ 10 | – | – | CCOC(=O)C(C)N1CCN2c3cc(OCc4ccc(F)c(F)c4)nc(=O)n3CC2C1 (single isomer, unassigned) [Example E326, Ethyl 2-(7-((3,4-difluorobenzyl)oxy)-9-oxo-3,4,11,11a-tetrahydro-1H-pyrazino[1′,2′:3,4]imidazo[1,2-c]pyrimidin-2(9H)-yl)propanoate]
7 | ≤ 10 | – | – | O=C1CN2c3cc(NCc4ccc(F)c(F)c4)nc(=O)n3CC2CN1 (stereo not shown) [Example E353, 7-((3,4-Difluorobenzyl)amino)-11,11a-dihydro-1H-pyrazino[1′,2′:3,4]imidazo[1,2-c]pyrimidine-3,9(2H,4H)-dione]
8 | ≤ 10 | – | – | O=C(O)C(C1CC1)N1CCN2c3cc(OCc4ccc(F)c(F)c4)nc(=O)n3CC2C1 (stereo not shown) [Example E328, 2-Cyclopropyl-2-(7-((3,4-difluorobenzyl)oxy)-9-oxo-3,4,11,11a-tetrahydro-1H-pyrazino[1′,2′:3,4]imidazo[1,2-c]pyrimidin-2(9H)-yl)acetic acid, trifluoroacetic acid Salt]
9 | ≤ 10 | – | – | CS(=O)(=O)N1CCN2c3cc(NCc4ccc(F)c(C#N)c4)nc(=O)n3CC2C1 (stereo not shown) [Example E312, 2-Fluoro-5-(((2-(methylsulfonyl)-9-oxo-2,3,4,9,11,11a-hexahydro-1H-pyrazino[1′,2′:3,4]imidazo[1,2-c]pyrimidin-7-yl)amino)methyl)benzonitrile]
10 | ≤ 10 | – | – | CS(=O)(=O)N1CCN2c3cc(NCc4cccc(F)c4F)nc(=O)n3CC2C1 (stereo not shown) [Example E311, 7-((2,3-Difluorobenzyl)amino)-2-(methylsulfonyl)-3,4,11,11a-tetrahydro-1H-pyrazino[1′,2′:3,4]imidazo[1,2-c]pyrimidin-9(2H)-one]
11 | ≤ 10 | – | – | Cn1cc(Oc2c(F)cc(COc3cc4n(c(=O)n3)CC3(COC3)N4)cc2F)cn1 [Example E393]
12 | ≤ 10 | – | – | O=c1nc(NCc2cccc(F)c2F)cc2n1CC1CSCCN21 (stereo not shown) [Example E377, 7-((2,3-Difluorobenzyl)amino)-3,4,11,11a-tetrahydropyrimido[6′,1′:2,3]imidazo[5,1-c][1,4]thiazin-9(1H)-one]
13 | ≤ 10 | – | – | O=c1nc(NCc2ccc(F)c(F)c2)cc2n1CC1CSCCN21 (stereo not shown) [Example E374, 7-((3,4-Difluorobenzyl)amino)-3,4,11,11a-tetrahydropyrimido[6′,1′:2,3]imidazo[5,1-c][1,4]thiazin-9(1H)-one]
14 | ≤ 10 | – | – | N#Cc1cc(COc2cc3n(c(=O)n2)C[C@H]2C[C@@H](N)CN32)ccc1F [Example E389, 5-((((7R,8aR)-7-Amino-1-oxo-1,6,7,8,8a,9-hexahydropyrrolo[1′,2′:3,4]imidazo[1,2-c]pyrimidin-3-yl)oxy)methyl)-2-fluorobenzonitrile]
15 | – | ≤ 0.1 | ≤ 10 | O=c1nc(OCc2cc(F)c(F)c(F)c2)cc2n1C[C@@H]1CCCCN21 [Example E32, (S)-3-((3,4,5-Trifluorobenzyl)oxy)-6,7,8,9,9a,10-hexahydro-1H-pyrido[1′,2′:3,4]imidazo[1,2-c]pyrimidin-1-one]
16 | – | ≤ 0.1 | ≤ 10 | CN1c2cc(OCc3ccc(F)cc3F)nc(=O)n2CC12CCCC2 [Example 419, 7′4(2,4-difluorobenzyhoxy)-1-methyl-1H-spiro[cyclopentane-1,2′-imidazo[1,2-c]pyrimidin]-5′(3′H)-one]
17 | – | ≤ 0.1 | ≤ 10 | O=c1nc(OCc2cccc(F)c2F)cc2n1C[C@H]1CCCN21 [Example E101, (R)-3-((2,3-difluorobenzyl)oxy)-7,8,8a, 9-tetrahydropyrrolo[1′, 2′:3, 4]imidazo[1,2-c] pyrimidin-1(6H)-one]
18 | – | ≤ 0.1 | ≤ 10 | O=c1nc(OCCc2cccs2)cc2n1C[C@@H]1CCCCN21 [Example E36, (S)-3-(2-(Thiophen-2-yl)ethoxy)-6,7,8,9,9a,10-hexahydro-1H-pyrido[1′,2′:3,4]imidazo[1,2-c]pyrimidin-1-one]
19 | – | ≤ 0.001 | ≤ 0.1 | O=c1nc(OCc2cc(F)c(Oc3ccnc(C(F)(F)F)c3)c(F)c2)cc2n1CC1CCCN21 (stereo not shown) [Example E75, 3-((3,5-difluoro-4-((2-(trifluoromethyl)pyridin-4-yl)oxy)benzyl)oxy)-7,8,8a, 9-tetrahydro pyrrolo[1′, 2′:3, 4]imidazo[1,2-c]pyrimidin-1(6H)-one]
20 | – | ≤ 0.001 | ≤ 0.1 | O=c1nc(OCc2cc(F)c(Oc3ccnc(Cl)c3)c(F)c2)cc2n1CC1CCCCN21 (stereo not shown) [Example E26, 3-((4-((2-Chloropyridin-4-yl)oxy)-3,5-difluorobenzyl)oxy)-6,7,8,9,9a,10-hexahydro-1H-pyrido[1,2′:3,4]imidazo[1,2-c]pyrimidin-1-one]
21 | – | ≤ 0.001 | ≤ 0.1 | O=c1nc(OCc2cc(F)c(Oc3ccc(C(F)(F)F)nc3)c(F)c2)cc2n1CC1CCCCN21 (stereo not shown) [Example E49, 3-((3,5-difluoro-4-((6-(trifluoromethyl)pyridin-3-yl)oxy)benzyl)oxy)-6,7,8,9,9a,10-hexahydro-1H-pyrido[1′,2′:3,4]imidazo[1,2-c]pyrimidin-1-one]

Row | Structure (SMILES) | IC50 [1] [µM] | IC50 [2] [µM] | IC50 (Lp-PLA2 in human plasma) [µM]
22 | O=c1nc(OCc2ccc(F)c(Br)c2)cc2n1CC1CNCCN21 (stereo not shown) [Example E276, 7-((3-Bromo-4-fluorobenzyl)oxy)-3,4,11,11a-tetrahydro-1H-pyrazino[1′,2′:3,4] imidazo [1,2-c]pyrimidin-9(2H)-one] | ≤ 10 | – | –
23 | O=c1nc(OCc2ccc(F)c(Cl)c2)cc2n1CC1CNCCN21 (stereo not shown) [Example E277, 7-((3-Chloro-4-fluorobenzyl)oxy)-3,4,11,11a-tetrahydro-1H-pyrazino[1′,2′:3,4] imidazo [1,2-c]pyrimidin-9(2H)-one] | ≤ 10 | – | –
24 | N#Cc1cc(COc2cc3n(c(=O)n2)CC2CNCCN32)ccc1OC1CCC1 (stereo not shown) [Example E316, 2-Cyclobutoxy-5-(((9-oxo-2,3,4,9,11,11a-hexahydro-1H-pyrazino[1′,2′:3,4]imidazo[1,2-c]pyrimidin-7-yl)oxy)methyl)benzonitrile] | ≤ 10 | – | –
